We go through one compound from patent US20170136008A1, “OXABICYCLOHEPTANES AND OXABICYCLOHEPTENES FOR THE TREATMENT OF OVARIAN CANCER” (priority 2014, published 2017).

Common to all, as to type: cell-based, human
The subject of assay [1] is PEO4 ovarian cancer cell line. Briefly: MTT cytotoxicity assay, PEO4. Conditions: Homo sapiens, PEO4, read-out: IC50, viability of ovarian cancer cell line. As to the method:
(§1) SKOV-3 ovarian cancer cells were purchased from American Type Culture Collection (ATCC) (Manassas, Va.). SKOV-3 cells were cultured in McCoy's 5A medium (ATCC, Manassas, Va.) supplemented with 10% fetal bovine serum and 100 units/mL penicillin G sodium, 100 ug/mL streptomycin sulfate, and 292 μg/ml, L-glutamine (BioWhittaker, Wakersville, Md.). Luciferase-expressing cells were generated by infecting SKOV-3 cells with pCLNCX-luciferase retrovirus (SKOV-3-Luc) as previously reported (Wei, B. R. et al. 2009). Human OVCAR-8 ovarian cancer cells were provided by the National Cancer Institute (part of the NCI-60 collection). The PEO1, PEO4, and PEO6 ovarian cancer cell lines have previously been characterized (Langdon, S. P. et al. 1988) and were kindly provided by Dr. Ian Goldlust (National Center for Advancing Translational Sciences, Shady Grove, Md.). […]
(§2) Cell survival was measured by the 3-(4,5-dimethylthiazol-2-yl)-2,5-diphenyltetrazolium bromide (MTT, Invitrogen) assay. […] Absorbance values were determined at […] on a Spectra Max 250 spectrophotometer (Molecular Devices, Sunnyvale, Calif.). […] Cell viability was analyzed via the MTT assay as described above. […]

The subject of assay [2] is DNA damage response, checkpoint and apoptosis proteins in SKOV-3 cells. Briefly: Immunoblotting, SKOV-3 cells. As to the method:
Whole cell and homogenized tumor tissues were lysed in NP-40 lysis buffer [50 mM Tris/HCl, pH 7.4, 150 mM NaCl and 1% Nonidet P40, supplemented with Complete Protrase Inhibitor Cocktail tablets and PhosStop phosphatase inhibitors (Roche, Indianapolis, Ind.)] and prepared as previously described (Madigan, J. P. et al. 2009). Protein (40 μg) was resolved on SDS/PAGE (12% or 15% gels) and transferred onto Immobilon PVDF membrane. The membrane was then blocked for 1 hour at room temperature in 5% (w/v) non-fat milk in TBS-Tween and probed overnight with primary antibodies. After extensive washing, cells were probed with anti-rabbit or anti-mouse IgG-horseradish per oxidase (HRP)-conjugated secondary antibodies (Cell Signaling Technology, Danvers, Mass.) in blocking buffer for 1 h. Membranes were subsequently incubated in Immobilon Western blot Chemiluminescent HRP Substrate (Millipore) and developed on biomax XAR film (Kodak). Antibodies were purchased from Cell Signaling Technology: γH2AX (Ser139), p-Wee1 (Ser 642), Wee1, p-cdc2 (Tyr15), p-BRCA1 (Ser1524), p-Chk1 (Ser345), p-Chk1 (Ser317), Chk-1, phospho-Chk2 (Thr68), PP2Ac, cleaved caspase-3 (Asp175), cleaved PARP (Asp214), p-histone H3 (Ser10), p-ATR (Ser428), and p-(Ser)14-3-3 binding motif.
In general terms: A western blot detects proteins with antibodies after separation by electrophoresis.

Assay [3] concerns PEO1-Missense (PEO-1m) ovarian cancer cell line. Briefly: MTT cytotoxicity assay, PEO1-Missense. The following applies: Homo sapiens, read-out: IC50, viability of ovarian cancer cell line. As to the method: as §1, §2
Assay [4] deals with PEO1-STOP (PEO-1s) ovarian cancer cell line. Briefly: MTT cytotoxicity assay, PEO1-STOP. Conditions: Homo sapiens, read-out: IC50, viability of ovarian cancer cell line. As to the method: as §1, §2
On the technique in general: Tetrazolium assays rely on reduction of a dye to a coloured formazan, in cell work by metabolically active cells.

The subject of another assay is OVCAR-8 cells. Briefly: Cell-cycle analysis (FACS), OVCAR-8. The following applies: LB100 2 μM. As to the method: For cell-cycle analysis, cells were washed with PBS and fixed overnight in ice-cold 70% ethanol and stored at 4° C. Cells were then centrifuged and resuspended in 100 U RNAse (Sigma-Aldrich), and incubated at 37° C. for 20 min. Propidiumidodide solution (Invitrogen, 500 μL, 50 μg/mL in DPBS) was added to each tube and incubated in the dark at 4° C. overnight. Flow cytometry analysis was performed with CellQuestPro and data analysis was completed with ModFit LT. All data is in triplicate and presented as a percent mean±SD.

For orientation: IC50 means the concentration that inhibits the measured activity by half. Regarding `CN1CCN(C(=O)C2C(C(=O)O)[C@H]3CC[C@@H]2O3)CC1` (stereo partly drawn) [LB100], the concentration for half-maximal inhibition (IC50) in assay [1] was 5 ± 0.6 µM; in assay [3], 6.2 ± 1.5 µM; in assay [4], 6.9 ± 1 µM. Besides, the “expression of p-Ser14-3-3 binding motifs compared to control treatment” value in assay [2] (LB100-treated SKOV-3 cells) is on record as “widespread increased expression”. In assay [2] (SKOV-3, LB100), the “phosphorylation of γH2AX, Chk2, and BRCA1 at 24 h, and JNK at 72 h” value is “enhanced and prolonged”. Moreover, the “phosphorylation of Wee-1 compared to control” value in assay [2] (SKOV-3, LB100 5 μM, 24 h) is recorded as “induced hyperphosphorylation”. The “G1 (%)” value in the assay on OVCAR-8 cells (24 h) is 45.4 ± 1.5%; with OVCAR-8 cells (48 h), 55.3 ± 0.4%. In addition, the results for the “G2/M (%)” value with OVCAR-8 cells (24 h) and in the assay with OVCAR-8 cells (48 h) were 17.6 ± 0.4% and 14.9 ± 1.5%, respectively. For the same compound, the “S (%)” value with OVCAR-8 cells (24 h) is recorded as 37.0 ± 1.6%; with OVCAR-8 cells (48 h) it was 29.9 ± 1.1%.
